Data from PubChem BioAssay AID248 (DTP/NCI, 2004).
Where “and” joins values, the source holds several entries; their conditions need not be identical. Equal values may be shown once. Inconclusive results and toxic doses are left out.

Test system: L1210 leukemia ip in BDF1 mice, survival T/C
Assay: NCI In Vivo Anticancer Drug Screen. Data for tumor model L1210 Leukemia (intraperitoneal) in B6D2F1 (BDF1) mice
Details: endpoint: mean survival time, higher = longer survival
In short: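 Tumor was transplanted into mice, which were then dosed with test compound or vehicle alone. Survival was recorded for each group, and the treated figure was expressed relative to the control figure.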

[1] = dose: 50.0 mg/kg/injection, schedule: Q01DX009 (ip), vehicle: Klucel (hydroxypropylcellulose) (HPC)
[2] = dose: 100.0 mg/kg/injection, schedule: Q04DX003 (ip), vehicle: saline
[3] = dose: 100.0 mg/kg/injection, schedule: Q01DX001 (ip), vehicle: saline with Tween-80
[4] = dose: 100.0 mg/kg/injection, schedule: Q01DX009 (ip), vehicle: saline with Tween-80
[5] = dose: 100.0 mg/kg/injection, schedule: Q04DX003 (ip), vehicle: saline with Tween-80
[6] = dose: 200.0 mg/kg/injection, schedule: Q01DX001 (ip), vehicle: saline with Tween-80
[7] = dose: 200.0 mg/kg/injection, schedule: Q01DX009 (ip), vehicle: saline with Tween-80
[8] = dose: 200.0 mg/kg/injection, schedule: Q04DX003 (ip), vehicle: saline with Tween-80
[9] = dose: 400.0 mg/kg/injection, schedule: Q01DX001 (ip), vehicle: saline with Tween-80
[10] = dose: 400.0 mg/kg/injection, schedule: Q04DX003 (ip), vehicle: saline with Tween-80
[11] = dose: 400.0 mg/kg/injection, schedule: Q01DX009 (ip), vehicle: saline with Tween-80
[12] = dose: 50.0 mg/kg/injection, schedule: Q04DX003 (ip), vehicle: Klucel (hydroxypropylcellulose) (HPC)
[13] = dose: 100.0 mg/kg/injection, schedule: Q04DX003 (ip), vehicle: Klucel (hydroxypropylcellulose) (HPC)
[14] = dose: 200.0 mg/kg/injection, schedule: Q04DX003 (ip), vehicle: Klucel (hydroxypropylcellulose) (HPC)
[15] = dose: 100.0 mg/kg/injection, schedule: Q01DX001 (ip), vehicle: saline
[16] = dose: 200.0 mg/kg/injection, schedule: Q01DX001 (ip), vehicle: saline
[17] = dose: 400.0 mg/kg/injection, schedule: Q01DX001 (ip), vehicle: saline
[18] = dose: 100.0 mg/kg/injection, schedule: Q01DX009 (ip), vehicle: Klucel (hydroxypropylcellulose) (HPC)
[19] = dose: 200.0 mg/kg/injection, schedule: Q01DX009 (ip), vehicle: Klucel (hydroxypropylcellulose) (HPC)

Q: Which results are given for `CCCCCCCCCOCCOCCOCCN`?
A: T/C (dose: 12.0 mg/kg/injection, schedule: Q01DX009 (ip), vehicle: Klucel (hydroxypropylcellulose) (HPC)): 99 % of control; T/C (dose: 25.0 mg/kg/injection, schedule: Q01DX009 (ip), vehicle: Klucel (hydroxypropylcellulose) (HPC)): 100 % of control; T/C (dose: 25.0 mg/kg/injection, schedule: Q04DX003 (ip), vehicle: saline): 102 % of control; T/C [1]: 100 % of control; T/C (dose: 50.0 mg/kg/injection, schedule: Q04DX003 (ip), vehicle: saline): 96 % of control; T/C [2]: 86 % of control

Q: How did the T/C (dose: 0.8 mg/kg/injection, schedule: Q01DX009 (ip), vehicle: saline) turn out when `CC1(C)N=C(N)N=C(N)N1c1ccc(OCC(=O)Nc2ccc(S(=O)(=O)F)cc2)cc1` was run?
A: 101 % of control

Q: What about the T/C (dose: 4.0 mg/kg/injection, schedule: Q01DX009 (ip), vehicle: saline) of the same compound?
A: 103 % of control

Q: And the T/C (dose: 20.0 mg/kg/injection, schedule: Q01DX009 (ip), vehicle: saline)?
A: 112 % of control

Q: Which results are given for `CN1CCN(c2nn3nnnc3c3ccccc23)CC1`?
A: T/C (dose: 20.0 mg/kg/injection, schedule: Q04DX003 (ip), vehicle: saline): 98 % of control; T/C (dose: 40.0 mg/kg/injection, schedule: Q04DX003 (ip), vehicle: saline): 104 % of control; T/C (dose: 80.0 mg/kg/injection, schedule: Q04DX003 (ip), vehicle: saline): 95 % of control

Q: Which T/C (dose: 75.0 mg/kg/injection, schedule: Q01DX009 (ip), vehicle: carboxymethylcellulose (CMC)) does the source give for `O=CC(O)C(O)C(OC1OC(CO)C(O)C(O)C1O)C(O)CO` (stereo not drawn) (tested in a mixture with another compound) here?
A: 105 % of control

Q: And the T/C [3]?
A: 94 % of control and 98 % of control

Q: What about the T/C (dose: 100.0 mg/kg/injection, schedule: Q01DX009 (ip), vehicle: carboxymethylcellulose (CMC)) of the same compound?
A: 98 % of control

Q: What about the T/C [4] of the same compound?
A: 94 % of control

Q: What about the T/C (dose: 100.0 mg/kg/injection, schedule: Q04DX002 (ip), vehicle: saline with Tween-80) of the same compound?
A: 108 % of control [middle of 4 runs]

Q: What about the T/C [5] of the same compound?
A: 97 % of control and 108 % of control

Q: What about the T/C (dose: 150.0 mg/kg/injection, schedule: Q01DX009 (ip), vehicle: carboxymethylcellulose (CMC)) of the same compound?
A: 105 % of control

Q: What about the T/C [6] of the same compound?
A: 98 % of control and 105 % of control

Q: And the T/C (dose: 200.0 mg/kg/injection, schedule: Q01DX009 (ip), vehicle: carboxymethylcellulose (CMC))?
A: 105 % of control

Q: What about the T/C [7] of the same compound?
A: 100 % of control

Q: What about the T/C (dose: 200.0 mg/kg/injection, schedule: Q04DX002 (ip), vehicle: saline with Tween-80) of the same compound?
A: 97 % of control [middle of 4 runs]

Q: What about the T/C [8] of the same compound?
A: 91 % of control and 92 % of control

Q: What about the T/C (dose: 300.0 mg/kg/injection, schedule: Q01DX009 (ip), vehicle: carboxymethylcellulose (CMC)) of the same compound?
A: 100 % of control

Q: And the T/C [9]?
A: 93 % of control and 92 % of control

Q: What about the T/C (dose: 400.0 mg/kg/injection, schedule: Q01DX009 (ip), vehicle: carboxymethylcellulose (CMC)) of the same compound?
A: 96 % of control

Q: And the T/C (dose: 400.0 mg/kg/injection, schedule: Q04DX002 (ip), vehicle: saline with Tween-80)?
A: 96 % of control and 92 % of control and 94 % of control

Q: And the T/C [10]?
A: 101 % of control and 92 % of control

Q: With `Br/C(=N\Nc1nn[nH]n1)c1ccccc1` as the compound, how does the T/C [4] read?
A: 93 % of control

Q: And the T/C [7]?
A: 98 % of control

Q: And the T/C [11]?
A: 95 % of control

Q: What does the source list for `CN(Cc1ccccc1)C(=O)Nc1cccc(C(F)(F)F)c1`?
A: T/C [4]: 107 % of control; T/C [7]: 98 % of control; T/C [11]: 96 % of control

Q: Which results are given for `COc1ccc(C[n+]2cccc(CNC(=O)COc3ccc(Cl)c(Cl)c3)c2)cc1`?
A: T/C (dose: 25.0 mg/kg/injection, schedule: Q04DX003 (ip), vehicle: Klucel (hydroxypropylcellulose) (HPC)): 98 % of control; T/C [12]: 106 % of control; T/C [13]: 107 % of control and 108 % of control

Q: How did the T/C (dose: 12.5 mg/kg/injection, schedule: Q01DX001 (ip), vehicle: saline) turn out when `CC[N+](CC)(CC)CCNC(c1ccccc1)C(Cl)(Cl)Cl` (stereo not drawn) was run?
A: 97 % of control

Q: What about the T/C (dose: 25.0 mg/kg/injection, schedule: Q01DX001 (ip), vehicle: saline) of the same compound?
A: 87 % of control

Q: What about the T/C (dose: 50.0 mg/kg/injection, schedule: Q01DX001 (ip), vehicle: saline) of the same compound?
A: 95 % of control

Q: Which results are given for `C(=C\c1cc[n+](CCc2ccccc2)cc1)/c1ccccc1`?
A: T/C (dose: 6.25 mg/kg/injection, schedule: Q04DX003 (ip), vehicle: saline with Tween-80): 110 % of control; T/C (dose: 12.5 mg/kg/injection, schedule: Q04DX003 (ip), vehicle: saline with Tween-80): 89 % of control; T/C (dose: 25.0 mg/kg/injection, schedule: Q04DX003 (ip), vehicle: saline with Tween-80): 101 % of control

Q: What does the source list for `CCCn1/c(=N\N=O)sc2ccccc21`?
A: T/C [13]: 93 % of control; T/C [14]: 95 % of control; T/C (dose: 400.0 mg/kg/injection, schedule: Q04DX003 (ip), vehicle: Klucel (hydroxypropylcellulose) (HPC)): 92 % of control

Q: `C=CO` was tested. Which T/C [15] did it give?
A: 103 % of control

Q: And the T/C [16]?
A: 95 % of control

Q: What about the T/C [17] of the same compound?
A: 89 % of control

Q: Which T/C (dose: 100.0 mg/kg/injection, schedule: Q01DX009 (ip), vehicle: saline) does the source give for `COC(=O)C1(C)CCC(c2ccc(OC)cc2)CC1=O` (stereo not drawn) here?
A: 93 % of control

Q: What about the T/C [2] of the same compound?
A: 92 % of control

Q: And the T/C (dose: 200.0 mg/kg/injection, schedule: Q01DX009 (ip), vehicle: saline)?
A: 88 % of control

Q: What about the T/C (dose: 200.0 mg/kg/injection, schedule: Q04DX003 (ip), vehicle: saline) of the same compound?
A: 95 % of control

Q: And the T/C (dose: 400.0 mg/kg/injection, schedule: Q01DX009 (ip), vehicle: saline)?
A: 90 % of control

Q: And the T/C (dose: 400.0 mg/kg/injection, schedule: Q04DX003 (ip), vehicle: saline)?
A: 88 % of control

Q: `O=C(O)/C=C/C(=O)NCc1ccco1` was tested. Which T/C [4] did it give?
A: 98 % of control

Q: What about the T/C [7] of the same compound?
A: 96 % of control

Q: What about the T/C [11] of the same compound?
A: 101 % of control

Q: For `Br/C1=C/CCCCCC1`, which T/C (dose: 75.0 mg/kg/injection, schedule: Q04DX003 (ip), vehicle: saline) is on record?
A: 102 % of control

Q: And the T/C (dose: 150.0 mg/kg/injection, schedule: Q04DX003 (ip), vehicle: saline)?
A: 96 % of control

Q: How did the T/C [5] turn out when `c1ccn(-c2nccs2)c1` was run?
A: 103 % of control

Q: And the T/C [8]?
A: 113 % of control

Q: `CNc1ccc(Cl)cc1-c1nc2ccccc2[nH]1` was tested. Which T/C [1] did it give?
A: 109 % of control

Q: What about the T/C [18] of the same compound?
A: 102 % of control

Q: And the T/C [19]?
A: 102 % of control

Q: For `O=[N+]([O-])c1ccc(/C=C/c2ccccc2)c(Cl)c1`, which T/C [3] is on record?
A: 95 % of control

Q: And the T/C [6]?
A: 102 % of control

Q: What about the T/C [9] of the same compound?
A: 95 % of control

Q: Which T/C (dose: 50.0 mg/kg/injection, schedule: Q01DX001 (ip), vehicle: Klucel (hydroxypropylcellulose) (HPC)) does the source give for `CN1CC2(CCN(CC3COc4ccccc4O3)CC2)OC1=O` (stereo not drawn) here?
A: 93 % of control

Q: And the T/C (dose: 100.0 mg/kg/injection, schedule: Q01DX001 (ip), vehicle: Klucel (hydroxypropylcellulose) (HPC))?
A: 103 % of control

Q: And the T/C (dose: 200.0 mg/kg/injection, schedule: Q01DX001 (ip), vehicle: Klucel (hydroxypropylcellulose) (HPC))?
A: 117 % of control

Q: What about the T/C (dose: 400.0 mg/kg/injection, schedule: Q01DX001 (ip), vehicle: Klucel (hydroxypropylcellulose) (HPC)) of the same compound?
A: 107 % of control

Q: With `O=C1C=C(c2ccccc2)Sc2ccccc2N1` as the compound, how does the T/C [5] read?
A: 97 % of control

Q: And the T/C [8]?
A: 100 % of control

Q: And the T/C [10]?
A: 97 % of control

Q: Which T/C (dose: 50.0 mg/kg/injection, schedule: Q01DX001 (ip), vehicle: carboxymethylcellulose (CMC)) does the source give for `Cn1c2c(c3ccccc3c1=O)C(=O)c1ccccc1-2` here?
A: 94 % of control

Q: What about the T/C (dose: 100.0 mg/kg/injection, schedule: Q01DX001 (ip), vehicle: carboxymethylcellulose (CMC)) of the same compound?
A: 94 % of control

Q: What about the T/C (dose: 200.0 mg/kg/injection, schedule: Q01DX001 (ip), vehicle: carboxymethylcellulose (CMC)) of the same compound?
A: 91 % of control

Q: And the T/C (dose: 400.0 mg/kg/injection, schedule: Q01DX001 (ip), vehicle: carboxymethylcellulose (CMC))?
A: 91 % of control

Q: How did the T/C [15] turn out when `NC(CS)C(=O)O` (stereo not drawn) (tested in a mixture with another compound) was run?
A: 108 % of control

Q: And the T/C [16]?
A: 92 % of control

Q: And the T/C [17]?
A: 89 % of control

Q: Which results are given for `Nc1nc(=S)c2[nH]c(N=Nc3ccc(S(N)(=O)=O)cc3)nc2[nH]1`?
A: T/C [1]: 97 % of control; T/C [12]: 151 % of control; T/C [18]: 100 % of control; T/C [19]: 100 % of control; T/C [14]: 94 % of control
